We go through one substance from patent publication US10011631B2, “Stapled helical peptides and methods of synthesis” (The University of Hong Kong, priority 2015, dated 2018).

This assay deals with MAGUK GK domain. The assay is described as follows: ITC binding to the MAGUK GK domain. Conditions: from ITC studies.

For “Ala-Arg-Arg-S5-Glu-Tyr-Leu-S5-Ala-Ile-Gln [compound 1]”, the “binding affinity with the GK domain” value is reported as “no binding affinity”.
